Experimental data reported in US10669267B2, “Substituted N-[2-(4-phenoxypiperidin-1-yl)-2-(1,3-thiazol-5-yl)ethyl]benzamide and N-[2-(4-benzyloxypiperidin-1-yl)-2-(1,3-thiazol-5-yl)ethyl]benzamide derivatives P2X7 receptor antagonists” (Axxam S.P.A., priority 2016, dated 2020).
Like-named read-outs stand apart in the source and are kept apart here.

Key:
rat P2X7R = rat P2X7R (Rattus norvegicus (Rat), UniProt Q64663); assay: rat P2X7 Ca2+ influx, Screen Quest Fluo-8 No Wash Calcium Assay Kit (FLIPR TETRA); format: cell-based; details: read-out: rP2X7 (IC50; nM)
Experimental: Ca^2+ influx was measured in HEK-293 cells stably transfected with the receptor using Screen Quest™ Fluo-8 No Wash Calcium Assay Kit (AAt Bioquest®). Briefly, once inside the cells, the lipophilic blocking groups of Fluo-8 are cleaved by non-specific cell esterases, resulting in a negatively-charged fluorescent-dye that stays inside cells. Its fluorescence increases upon binding to calcium. When HEK-293/P2X7 cells were stimulated with BzATP, Ca^2+ entered the cells and the fluorescence of Fluo-8 NW increaseed.
To routinely test the compounds, HEK-293 cells stably transfected with rat P2X7R were seeded overnight in growth medium at 10000, 15000 or 20000 cells/well in 384-well plate, according to the level of response after thawing. 24 hours later, the medium was removed and the cells were pre-loaded at RT for 1 hour with 20 μL/w of Fluo-8 NW prepared in Tyrode 0.3 mM Ca^2+/Mg^2+-free.
Compounds were tested at […] according to the following method: • first injection at […] of 10 μL of 3× test compound (in Tyrode's buffer 0.3 mM Ca^2+/Mg^2+-free+DMSO 0.5% final concentration) • 5′ incubation • second injection at […] of 15 µL of 3× BzATP at ˜ECK) (in Tyrode's buffer 0.3 mM Ca^2+/Mg^2+-free+BSA 0.0003% final concentration) • Fluorescence recording for 3′
Between one plate and the following, tips were extensively washed with water, then with 100% DMSO and finally with water to avoid carry-over inside the tips.
The effect of the test compounds was measured as percent inhibition vs a reference antagonist and IC50 values were calculated accordingly.

human P2X7 channel = human P2X7 channel (Homo sapiens (Human), UniProt Q99572); assay: human P2X7 channel assay by automated patch-clamp (QPatch16X), BzATP-evoked current; format: cell-based; details: HEK-293 cells expressing P2X7, whole-cell voltage clamp, 100 microM BzATP, holding -80 mV; read-out: hP2X7 (IC50; nM)
Experimental: In order to directly monitor the block of P2X7 channel, an electrophysiological assay was developed and implemented on the QPatch16X automated electrophysiology instrument.
HEK-293 cells expressing the P2X7 channels were cultured in modified EMEM.
72 hours before experiment, 5 million cells were seeded onto T225 flasks. Just before the experiment cells were washed twice, detached from the flask with trypsin-EDTA, re-suspended in the suspension solution and placed on the QPatch 16x.
The compounds (20 mM in a 100% DMSO) stored at −20° C. were prepared the day of the experiment (a first dilution 1:20 in 100% DMSO to prepare a 1 mM stock solution, then a 1 microM solution in external solution+a serial dilution 1:10).
The standard whole-cell voltage clamp experiments were performed at room temperature. For these experiments the multihole technology was used and the data were sampled at 2 KHz.
After establishment of the seal and the passage in the whole cell configuration, the cells were held at −80 mV. The P2XR7 current was evoked by applying 100 microM of BzATP alone (4 times) and then in the presence increasing concentrations of the compound under investigation (1, 10, 100 and 1000 nM).
The pre-incubation periods 5 to 8 contain increasing concentrations of the compound of interest (1, 10, 100 and 1000 nM), as illustrated in FIGURE.
The maximal inward current evoked by BzATP in absence or presence of increasing concentrations of the compounds under investigation was measured and normalized.
Y: normalized response, 100% down to 0%, decreasing as X increases.
LogIC50: same log units as X
HillSlope: slope factor or HS, unitless

[1] = metabolic stability using Human liver Microsomes; format: in vitro ADME; set-up: unit not given here; details: 1 μM test compound, 1 mg/mL protein, pH 7.4, 0-60 min
Experimental: In vitro evaluation of test compounds for metabolic stability using Human liver
Test System Human (Mouse) Liver Microsomes
Test compound concentration: 1μM
Time Points: 0, 5, 10, 30 and 60 minutes
Final Protein concentration: 1 mg/mL
Number of Replicates: Two
Potassium Phosphate Buffer pH 7.4 100 mM
End Point: % Remaining of Test compound, Half life, Clint
Preparation and Dilution of Test Compound:
10 mM stock solution of test compound were prepared in DMSO and dilute with water: acetonitrile (1:1) to a concentration of 1 mM. Working concentration of 100 μM were prepared by further dilution with water: acetonitrile (1: 1).
Preparation of Potassium Phosphate buffer pH 7.4:
100 mL of Milli Q water will be added to K2HPO4 (1.398 g) and KH2PO4 (0.27 g) to get final pH 7.4.
Preincubation mixture: 2.5 μL Test Cpd.+75 μL Liver microsomes@3.33 mg/mL+85 μL of 100 mM potassium phosphate buffer (Preincubate for 10 min @37° C.)
60 min w/o cofactor: 32.5 μL of Preincubation mixture+17.5 μL of 100 mM potassium phosphate buffer (Incubate for 60 min@37° C.)
0 min sample: 16.25 μL of Preincubation mixture+200 μL of acetonitrile containing internal standard+8.75 μL of cofactor Incubation mixture 62 μL of cofactor (2.5 mM)+Remaining incubation mixture (Incubated for 60 min@37° C.).
Sample preparation: 25 μL incubation mixture+200 μL of acetonitrile containing internal standard+Vortex 5 min@1200 rpm+Centrifuge 10 min@4000 rpm. Dilute supernatant 2 fold with water and injected on LC-MS/MS.
Bioanalysis: LC-MS/MS method LC generic gradient conditions will be used and the details will be provided in the report.

[2] = Table 4, HEK-293 cells stably transfected with rat P2X7R, BzATP stimulation

Sequence of human P2X7 channel (Q99572 whole entry): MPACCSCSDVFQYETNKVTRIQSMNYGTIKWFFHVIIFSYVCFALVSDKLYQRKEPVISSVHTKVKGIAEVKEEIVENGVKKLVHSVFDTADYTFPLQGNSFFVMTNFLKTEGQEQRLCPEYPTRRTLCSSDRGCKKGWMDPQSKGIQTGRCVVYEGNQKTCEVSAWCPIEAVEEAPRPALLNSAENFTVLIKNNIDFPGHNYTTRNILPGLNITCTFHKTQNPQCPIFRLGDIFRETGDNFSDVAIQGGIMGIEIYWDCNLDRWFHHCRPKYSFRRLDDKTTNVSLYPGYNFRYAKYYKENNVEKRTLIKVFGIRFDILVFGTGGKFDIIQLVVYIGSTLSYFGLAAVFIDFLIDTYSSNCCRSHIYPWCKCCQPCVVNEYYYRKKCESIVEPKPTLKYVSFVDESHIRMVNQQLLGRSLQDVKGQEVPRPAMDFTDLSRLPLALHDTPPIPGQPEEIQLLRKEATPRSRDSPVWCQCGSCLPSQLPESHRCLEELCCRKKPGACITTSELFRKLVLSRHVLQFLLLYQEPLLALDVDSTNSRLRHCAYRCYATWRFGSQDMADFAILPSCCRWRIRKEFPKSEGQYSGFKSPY
Sequence of rat P2X7R (Q64663 whole entry): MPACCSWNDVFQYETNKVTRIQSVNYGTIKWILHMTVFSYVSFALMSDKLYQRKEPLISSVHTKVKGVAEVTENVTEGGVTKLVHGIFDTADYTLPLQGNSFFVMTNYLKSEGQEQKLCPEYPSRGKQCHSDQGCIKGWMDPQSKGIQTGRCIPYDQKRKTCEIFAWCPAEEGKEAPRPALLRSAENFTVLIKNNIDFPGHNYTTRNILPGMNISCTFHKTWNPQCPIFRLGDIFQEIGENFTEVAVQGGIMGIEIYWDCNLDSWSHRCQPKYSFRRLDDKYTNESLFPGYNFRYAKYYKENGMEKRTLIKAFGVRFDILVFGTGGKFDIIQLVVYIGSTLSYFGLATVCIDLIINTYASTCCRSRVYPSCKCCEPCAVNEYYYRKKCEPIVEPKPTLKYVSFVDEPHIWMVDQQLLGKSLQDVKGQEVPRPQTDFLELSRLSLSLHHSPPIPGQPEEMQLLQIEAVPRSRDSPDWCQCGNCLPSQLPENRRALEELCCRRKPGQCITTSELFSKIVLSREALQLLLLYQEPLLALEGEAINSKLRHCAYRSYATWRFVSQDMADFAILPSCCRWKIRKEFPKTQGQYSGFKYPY

Row | IC50 (rat P2X7R; [2]) | IC50 (human P2X7 channel) | Human Liver Microsomal Clearance (CLi; μg/min/mg protein) [1] | IC50 (rat P2X7R; Table 5, comparison with Compound 59 of WO2015118019) | Compound
1 | 594 nM | 30.6 nM | 59.41 | – | Cc1ncsc1C(CNC(=O)c1c(F)cccc1Cl)N1CCC(Oc2cc(F)cc(F)c2)CC1 (stereo not drawn) [Compound 11, 2-chloro-N-{2-[4-(3,5-difluorophenoxy)piperidin-1-yl]-2-(4-methyl-1,3-thiazol-5-yl)ethyl}-6-fluorobenzamide]
2 | 582 nM | 23.9 nM | 71.12 | – | Cc1ncsc1C(CNC(=O)c1cccc2ncccc12)N1CCC(Oc2ccc(F)cc2)CC1 (stereo not drawn) [Compound 19, N-{2-[4-(4-fluorophenoxy)piperidin-1-yl]-2-(4-methyl-1,3-thiazol-5-yl)ethyl}quinoline-5-carboxamide]
3 | 380 nM | 25.8 nM | – | – | Cc1ncsc1C(CNC(=O)c1c(F)cccc1Cl)N1CCC(Oc2ccc(F)c(F)c2)CC1 (stereo not drawn) [Compound 12, 2-chloro-N-{2-[4-(3,4-difluorophenoxy)piperidin-1-yl]-2-(4-methyl-1,3-thiazol-5-yl)ethyl}-6-fluorobenzamide]
4 | 441 nM | 28.9 nM | – | – | O=C(NCC(c1scnc1C(F)F)N1CCC(Oc2cccc(F)c2)CC1)c1c(F)cccc1Cl (stereo not drawn) [Compound 29, 2-chloro-N-{2-[4-(difluoromethyl)-1,3-thiazol-5-yl]-2-[4-(3-fluorophenoxy)piperidin-1-yl]ethyl}-6-fluorobenzamide]
5 | 1040 nM | 45 nM | – | – | Cc1ncsc1C(CNC(=O)c1c(F)cccc1Cl)N1CCC(OCc2ccc(F)cc2)CC1 (stereo not drawn) [Compound 1, 2-chloro-6-fluoro-N-(2-{4-[(4-fluorophenyl)methoxy]piperidin-1-yl)-2-(4-methyl-1,3-thiazol-5-yl}ethyl)benzamide]
6 | 355 nM | 30.2 nM | 93.44 | – | Cc1ncsc1C(CNC(=O)c1cccc2ncccc12)N1CCC(Oc2ccccc2F)CC1 (stereo not drawn) [Compound 22, N-{2-[4-(2-fluorophenoxy)piperidin-1-yl]-2-(4-methyl-1,3-thiazol-5-yl)ethyl}quinoline-5-carboxamide]
7 | 402 nM | 23.6 nM | – | – | Cc1ncsc1C(CNC(=O)c1c(F)cccc1Cl)N1CCC(Oc2cccc(F)c2)CC1 (stereo not drawn) [Compound 9, 2-chloro-6-fluoro-N-{2-[4-(3-fluorophenoxy)piperidin-1-yl]-2-(4-methyl-1,3-thiazol-5-yl)ethyl}benzamide]
8 | 182 nM | 56.2 nM | – | – | O=C(NCC(c1scnc1C(F)F)N1CCC(OCc2ccc(F)c(F)c2)CC1)c1cccc2ncccc12 (stereo not drawn) [Compound 33, N-{2-[4-(difluoromethyl)-1,3-thiazol-5-yl]-2-{4-[(3,4-difluorophenyl)methoxy]piperidin-1-yl}ethyl}quinoline-5-carboxamide]
9 | 709 nM | 51.5 nM | – | – | Cc1ncsc1C(CNC(=O)c1c(F)cccc1Cl)N1CCC(Oc2ccc(F)cc2)CC1 (stereo not drawn) [Compound 7, 2-chloro-6-fluoro-N-{2-[4-(4-fluorophenoxy)piperidin-1-yl]-2-(4-methyl-1,3-thiazol-5-yl)ethyl}benzamide]
10 | 506 nM | 35.1 nM | – | – | Cc1ncsc1C(CNC(=O)c1c(F)cccc1Cl)N1CCC(OCc2cc(F)cc(F)c2)CC1 (stereo not drawn) [Compound 5, 2-chloro-N-(2-{4-[(3,5-difluorophenyl)methoxy]piperidin-1-yl}-2-(4-methyl-1,3-thiazol-5-yl)ethyl)-6-fluorobenzamide]
11 | 329 nM | 40.7 nM | – | – | O=C(NCC(c1scnc1C(F)F)N1CCC(Oc2ccccc2F)CC1)c1c(F)cccc1Cl (stereo not drawn) [Compound 30, 2-chloro-N-{2-[4-(difluoromethyl)-1,3-thiazol-5-yl]-2-[4-(2-fluorophenoxy)piperidin-1-yl]ethyl}-6-fluorobenzamide]
12 | 432 nM | 32.9 nM | – | – | Cc1ncsc1C(CNC(=O)c1cccc2ncccc12)N1CCC(OCc2cc(F)cc(F)c2)CC1 (stereo not drawn) [Compound 17, N-(2-{4-[(3,5-difluorophenyl)methoxy]piperidin-1-yl}-2-(4-methyl-1,3-thiazol-5-yl)ethyl)quinoline-5-carboxamide]
13 | 268 nM | 26.4 nM | – | 268 nM | Cc1ncsc1C(CNC(=O)c1cccc2ncccc12)N1CCC(Oc2cccc(F)c2)CC1 (stereo not drawn) [Compound 21, N-{2-[4-(3-fluorophenoxy)piperidin-1-yl]-2-(4-methyl-1,3-thiazol-5-yl)ethyl}quinoline-5-carboxamide]
